Here are results for one compound from article PMC8636635 (Communications Biology, 2021).

Each structure is given as a SMILES string.

This test deals with Protein 3a (Severe acute respiratory syndrome coronavirus 2, UniProt P0DTC3). In words: two-electrode voltage clamp, X. laevis oocytes. The following applies: read-out: % block at 10 μM. (In general: Two-electrode voltage clamp is typically applied to oocytes expressing channels or transporters.)
Sequence of Protein 3a (P0DTC3 whole entry): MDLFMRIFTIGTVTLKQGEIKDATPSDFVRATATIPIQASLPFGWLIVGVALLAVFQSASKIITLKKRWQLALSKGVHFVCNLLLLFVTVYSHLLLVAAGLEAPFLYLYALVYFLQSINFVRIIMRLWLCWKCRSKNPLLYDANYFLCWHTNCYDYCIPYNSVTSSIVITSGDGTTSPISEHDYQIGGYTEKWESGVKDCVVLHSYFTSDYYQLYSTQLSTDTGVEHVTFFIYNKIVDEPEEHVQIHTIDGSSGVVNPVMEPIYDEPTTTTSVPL

With `c1ccc2c(c1)Cc1ccccc1O2` [xanthene], the inhibition at 10 µM came to 20%.
